Laboratory results from patent US6914045B2, “Glycopeptide antibiotics” (Wyeth Holdings Corporation, priority 2001, dated 2005).
Converted amounts (≈) assume the structure as drawn. Each block holds one compound with its values, some of them ahead of it.

Key:
Assay in all cases: in vitro antibacterial evaluation, MIC by broth dilution
Type in all cases: cell-based
Staphylococcus sp. = conditions: broth dilution, 18 hours at 35° C.
Outline: (§1)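 Read-out: the lowest concentration at which the test strain fails to grow. Serial dilutions (64-0.06 μg/mL) in Muller-Hinton II […], 5×10^5 CFU/mL inoculum, NCCLS M7-A2 procedure.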

Escherichia coli = conditions: 18 hours at 35° C.; for MIC Escherichia coli (GC 4559): strain GC 4559; for MIC Escherichia coli (GC 4560): strain GC 4560
Outline: as §1

Streptococcus sp. = conditions: broth dilution, 18 hours at 35° C.
Outline: as §1

Enterococcus sp. = conditions: broth dilution, 18 hours at 35° C.
Outline: as §1

[1] = Enterococcus faecalis (ATCC 29212)
[2] = Enterococcus faecalis (GC 2242)
[3] = Enterococcus faecalis (GC 4552)

MIC Coagulase Negative Staphylococcus (GC 4547) (Staphylococcus sp.): 32 µg/mL (≈ 23.1 µM) | MIC Coagulase Negative Staphylococcus (GC 4548) (Staphylococcus sp.): 16 to 32 µg/mL | MIC Coagulase Negative Staphylococcus (GC 4549) (Staphylococcus sp.): 16 to 32 µg/mL | MIC Coagulase Negative Staphylococcus (GC 4551) (Staphylococcus sp.): 32 µg/mL (≈ 23.1 µM) | MIC Coagulase Negative Staphylococcus (GC 6257) (Staphylococcus sp.): 16 µg/mL (≈ 11.6 µM) | MIC Staphylococcus aureus (ATCC 29213) (Staphylococcus sp.): 0.5 to 64 µg/mL | MIC Staphylococcus aureus (GC 1131) (Staphylococcus sp.): 0.5 to 64 µg/mL | MIC Staphylococcus aureus (GC 3051) (Staphylococcus sp.): 0.5 µg/mL (≈ 0.361 µM) | MIC Staphylococcus aureus (GC 3053) (Staphylococcus sp.): 0.5 µg/mL (≈ 0.361 µM) | MIC Staphylococcus aureus (GC 4541) (Staphylococcus sp.): 0.5 to 32 µg/mL | MIC Staphylococcus aureus (GC 4542) (Staphylococcus sp.): 0.5 µg/mL (≈ 0.361 µM) | MIC Staphylococcus aureus (GC 4544) (Staphylococcus sp.): 0.5 µg/mL (≈ 0.361 µM) | MIC Staphylococcus aureus (GC 4545) (Staphylococcus sp.): 0.5 µg/mL (≈ 0.361 µM) | MIC Staphylococcus aureus-SMITH (GC 4543) (Staphylococcus sp.): 0.5 to 64 µg/mL | MIC Coagulase Negative Staphylococcus (GC 4547) (Staphylococcus sp.; strain GC 4547): 32 µg/mL (≈ 23.1 µM) | MIC Coagulase Negative Staphylococcus (GC 4548) (Staphylococcus sp.; strain GC 4548): 16 to 32 µg/mL | MIC Coagulase Negative Staphylococcus (GC 4549) (Staphylococcus sp.; strain GC 4549): 16 to 32 µg/mL | MIC Coagulase Negative Staphylococcus (GC 4551) (Staphylococcus sp.; strain GC 4551): 32 µg/mL (≈ 23.1 µM) | MIC Coagulase Negative Staphylococcus (GC 6257) (Staphylococcus sp.; strain GC 6257): 16 µg/mL (≈ 11.6 µM) | MIC Staphylococcus aureus-SMITH (GC 4543) (Staphylococcus sp.; strain SMITH GC 4543): 0.5 to 64 µg/mL | MIC Staphylococcus aureus (ATCC 29213) (Staphylococcus sp.; strain ATCC 29213): 0.5 to 64 µg/mL | MIC Staphylococcus aureus (GC 1131) (Staphylococcus sp.; strain GC 1131): 0.5 to 64 µg/mL | MIC Staphylococcus aureus (GC 3051) (Staphylococcus sp.; strain GC 3051): 0.5 µg/mL (≈ 0.361 µM) | MIC Staphylococcus aureus (GC 3053) (Staphylococcus sp.; strain GC 3053): 0.5 µg/mL (≈ 0.361 µM) | MIC Staphylococcus aureus (GC 4541) (Staphylococcus sp.; strain GC 4541): 0.5 to 32 µg/mL | MIC Staphylococcus aureus (GC 4542) (Staphylococcus sp.; strain GC 4542): 0.5 µg/mL (≈ 0.361 µM) | MIC Staphylococcus aureus (GC 4544) (Staphylococcus sp.; strain GC 4544): 0.5 µg/mL (≈ 0.361 µM) | MIC Staphylococcus aureus (GC 4545) (Staphylococcus sp.; strain GC 4545): 0.5 µg/mL (≈ 0.361 µM) | MIC Escherichia coli (ATCC 25922) (Escherichia coli; strain ATCC 25922): >64 µg/mL | MIC Escherichia coli (GC 4559) (Escherichia coli): >64 µg/mL | MIC Escherichia coli (GC 4560) (Escherichia coli): 0.5 to 16 µg/mL | MIC Streptococcus agalactiae (GC 4564) (Streptococcus sp.; Streptococcus agalactiae (GC 4564)): 0.5 µg/mL (≈ 0.361 µM) | MIC Streptococcus pneumoniae (ATCC 6301) (Streptococcus sp.; Streptococcus pneumoniae (ATCC 6301)): 0.12 to 16 µg/mL | MIC Streptococcus pneumoniae (GC 1894) (Streptococcus sp.; Streptococcus pneumoniae (GC 1894)): 0.12 to 8 µg/mL | MIC Streptococcus pneumoniae (GC 4565) (Streptococcus sp.; Streptococcus pneumoniae (GC 4565)): 0.12 µg/mL (≈ 0.0867 µM) | MIC Streptococcus pyogenes (GC 4563) (Streptococcus sp.; Streptococcus pyogenes (GC 4563)): 0.12 µg/mL (≈ 0.0867 µM) | MIC Streptococcus pneumoniae (ATCC 6301) (Streptococcus sp.; strain ATCC 6301): 0.12 to 16 µg/mL | MIC Streptococcus pneumoniae (GC 1894) (Streptococcus sp.; strain GC 1894): 0.12 to 8 µg/mL | MIC Streptococcus pyogenes (GC 4563) (Streptococcus sp.; strain GC 4563): 0.12 µg/mL (≈ 0.0867 µM) | MIC Streptococcus agalactiae (GC 4564) (Streptococcus sp.; strain GC 4564): 0.5 µg/mL (≈ 0.361 µM) | MIC Streptococcus pneumoniae (GC 4565) (Streptococcus sp.; strain GC 4565): 0.12 µg/mL (≈ 0.0867 µM) | MIC Enterococcus avium (GC 4558) (Enterococcus sp.; Enterococcus avium (GC 4558)): >64 µg/mL | MIC Enterococcus faecalis (ATCC 29212) (Enterococcus sp.; [1]): >64 µg/mL | MIC Enterococcus faecalis (GC 2242) (Enterococcus sp.; [2]): >64 µg/mL | MIC Enterococcus faecalis (GC 2691) (Enterococcus sp.; Enterococcus faecalis (GC 2691)): >0.5 µg/mL | MIC Enterococcus faecalis (GC 3059) (Enterococcus sp.; Enterococcus faecalis (GC 3059)): >0.5 µg/mL | MIC Enterococcus faecalis (GC 4552) (Enterococcus sp.; [3]): >0.5 µg/mL | MIC Enterococcus faecalis (GC 4553) (Enterococcus sp.; Enterococcus faecalis (GC 4553)): >0.5 µg/mL | MIC Enterococcus faecalis (GC 4554) (Enterococcus sp.; Enterococcus faecalis (GC 4554)): >0.5 µg/mL | MIC Enterococcus faecalis (GC 6189) (Enterococcus sp.; Enterococcus faecalis (GC 6189)): >64 µg/mL | MIC Enterococcus faecium (GC 2243) (Enterococcus sp.; Enterococcus faecium (GC 2243)): >64 µg/mL | MIC Enterococcus faecium (GC 4556) (Enterococcus sp.; Enterococcus faecium (GC 4556)): >64 µg/mL | MIC Enterococcus faecium (GC 4557) (Enterococcus sp.; Enterococcus faecium (GC 4557)): 0.5 µg/mL (≈ 0.361 µM) | MIC Enterococcus faecalis (ATCC 29212) (Enterococcus sp.; strain ATCC 29212): >64 µg/mL | MIC Enterococcus faecalis (GC 2242) (Enterococcus sp.; strain GC 2242): >64 µg/mL | MIC Enterococcus faecium (GC 2243) (Enterococcus sp.; strain GC 2243): >64 µg/mL | MIC Enterococcus faecalis (GC 2691) (Enterococcus sp.; strain GC 2691): >0.5 µg/mL | MIC Enterococcus faecalis (GC 3059) (Enterococcus sp.; strain GC 3059): >0.5 µg/mL | MIC Enterococcus faecalis (GC 4552) (Enterococcus sp.; strain GC 4552): >0.5 µg/mL | MIC Enterococcus faecalis (GC 4553) (Enterococcus sp.; strain GC 4553): >0.5 µg/mL | MIC Enterococcus faecalis (GC 4554) (Enterococcus sp.; strain GC 4554): >0.5 µg/mL | MIC Enterococcus faecium (GC 4556) (Enterococcus sp.; strain GC 4556): >64 µg/mL | MIC Enterococcus faecium (GC 4557) (Enterococcus sp.; strain GC 4557): 0.5 µg/mL (≈ 0.361 µM) | MIC Enterococcus avium (GC 4558) (Enterococcus sp.; strain GC 4558): >64 µg/mL | MIC Enterococcus faecalis (GC 6189) (Enterococcus sp.; strain GC 6189): >64 µg/mL
Compound: CC(c1ccccc1)C1NC(=O)CNC(=O)C(CO)NC(=O)C(C(O)C2CNC(=N)N2C2OC(CO)C(O)C(O)C2O)NC(=O)C(C(O)C2CNC(=N)N2)NC(=O)C(Cc2ccc(OC3OC(CO)C(OC4OC(CO)C(O)C5OC(c6ccccc6)OC45)C(O)C3O)cc2)NC1=O (single isomer, unassigned) [Example 104a, Cyclo[glycyl-β-methylphenylalanyl-O-[4-O-(2,3-O-benzylidenehexopyranosyl)hexopyranosyl]-tyrosyl-3-(2-iminoimidazolidin-4-yl)seryl-3-(3-hexopyranosyl-2-iminoimidazolidin-4-yl)-serylseryl]]
MIC Staphylococcus haemolyticus (GC 4546) (Staphylococcus sp.): 32 µg/mL (≈ 23.1 µM) | MIC Staphylococcus haemolyticus (GC 4546) (Staphylococcus sp.; strain GC 4546): 32 µg/mL (≈ 23.1 µM)

MIC Coagulase Negative Staphylococcus (GC 4537) (Staphylococcus sp.): 1 µg/mL (≈ 0.704 µM) | MIC Coagulase Negative Staphylococcus (GC 4538) (Staphylococcus sp.): 1 µg/mL (≈ 0.704 µM) | MIC Coagulase Negative Staphylococcus (GC 4547) (Staphylococcus sp.): 1 µg/mL (≈ 0.704 µM) | MIC Staphylococcus aureus (ATCC 29213) (Staphylococcus sp.): 1 µg/mL (≈ 0.704 µM) | MIC Staphylococcus aureus (GC 1131) (Staphylococcus sp.): 1 µg/mL (≈ 0.704 µM) | MIC Staphylococcus aureus (GC 4535) (Staphylococcus sp.): 1 µg/mL (≈ 0.704 µM) | MIC Staphylococcus aureus-SMITH (GC 4536) (Staphylococcus sp.): 1 µg/mL (≈ 0.704 µM) | MIC Coagulase Negative Staphylococcus (GC 4537) (Staphylococcus sp.; strain GC 4537): 1 µg/mL (≈ 0.704 µM) | MIC Coagulase Negative Staphylococcus (GC 4538) (Staphylococcus sp.; strain GC 4538): 1 µg/mL (≈ 0.704 µM) | MIC Coagulase Negative Staphylococcus (GC 4547) (Staphylococcus sp.; strain GC 4547): 1 µg/mL (≈ 0.704 µM) | MIC Staphylococcus aureus (ATCC 29213) (Staphylococcus sp.; strain ATCC 29213): 1 µg/mL (≈ 0.704 µM) | MIC Staphylococcus aureus (GC 1131) (Staphylococcus sp.; strain GC 1131): 1 µg/mL (≈ 0.704 µM) | MIC Staphylococcus aureus (GC 4535) (Staphylococcus sp.; strain GC 4535): 1 µg/mL (≈ 0.704 µM) | MIC Staphylococcus aureus-SMITH (GC 4536) (Staphylococcus sp.; strain GC 4536): 1 µg/mL (≈ 0.704 µM) | MIC Escherichia coli (GC 4559) (Escherichia coli): 32 µg/mL (≈ 22.5 µM) | MIC Escherichia coli (GC 4560) (Escherichia coli): 0.5 µg/mL (≈ 0.352 µM) | MIC Enterococcus faecalis (ATCC 29212) (Enterococcus sp.; [1]): 4 µg/mL (≈ 2.82 µM) | MIC Enterococcus faecalis (GC 2242) (Enterococcus sp.; [2]): 2 µg/mL (≈ 1.41 µM) | MIC Enterococcus faecalis (GC 4552) (Enterococcus sp.; [3]): 4 µg/mL (≈ 2.82 µM) | MIC Enterococcus faecalis (ATCC 29212) (Enterococcus sp.; strain ATCC 29212): 4 µg/mL (≈ 2.82 µM) | MIC Enterococcus faecalis (GC 2242) (Enterococcus sp.; strain GC 2242): 2 µg/mL (≈ 1.41 µM) | MIC Enterococcus faecalis (GC 4552) (Enterococcus sp.; strain GC 4552): 4 µg/mL (≈ 2.82 µM)
Compound: CC(c1ccccc1)C1NC(=O)CNC(=O)C(CO)NC(=O)C(C(O)C2CNC(=N)N2C2OC(CO)C(O)C(O)C2O)NC(=O)C(C(O)C2CNC(=N)N2)NC(=O)C(Cc2ccc(OC3OC(CO)C(OC4OC(COC(=O)CCC5CCCC5)C(O)C(O)C4O)C(O)C3O)cc2)NC1=O (centres unmarked) [Example 100c]
